Reference: patent publication US20140134730A1, “METHOD FOR INHIBITING CELL PROLIFERATION BY OXIDATIVE STRESS” (KYOWA HAKKO KIRIN CO., LTD, priority 2012, published 2014)

Test system: SNU-16
Assay: Western blot analysis of DNA damage (H2A.X Phospho-Ser139)
Assay type: cell-based
Conditions: 8 hours, KM4008HV2LV3 10 μg/mL, H2O2 50 μM
Protocol: Anti-phospho-Histone H2A.X Ser139, clone JBW301 (Millipore Catalog No. 05-636) as a primary antibody and anti-mouse IgG, HRP-linked antibody (CST Catalog No. 7076) as a secondary antibody were used.
SNU-16 was seeded in 10 mL of the assay medium at a density of 2×10^4 cells/mL, and cultured at 37° C. under the conditions of 5% CO2 for 24 hours. Then, KM4008HV2LV3 (final concentration of 10 μg/mL), the solvent solution of antibody, or hydrogen peroxide (H2O2) (final concentration of 50 μM) was added. The cells were left at 37° C. under the conditions of 5% CO2 for 8 hours, and the suspending cells were recovered together with the culture supernatant.
The adherent cells were washed with D-PBS(−) (manufactured by Nacalai Tesque, Catalog No. 14249-95), and then 1.5 mL of TrypLE select (manufactured by Invitrogen, Catalog No. 12563-011) was added and left at 37° C. under the conditions of 5% CO2 for 5 minutes for detachment, and then mixed with the suspending cells recovered in advance to be used in the subsequent manipulations. […]
The cell lysate thus obtained was left on ice for 15 minutes, followed by centrifugation at 15,000 rpm for 15 minutes. The protein concentration in the supernatant thus obtained was determined using a BCA protein assay kit (manufactured by Pierce, Catalog No. 23225). […]

OO [H2O2, hydrogen peroxide]
Phosphorylation signals of H2A.X Ser139 (Western blot) compared to solvent-treated cells: increased
